Laboratory results taken from PubChem BioAssay (NCI).
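Cultured in 96-well plates, cells were exposed to test compound for 48 hours across five concentrations. The concentration for full growth arrest is given as TGI.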 Where a SMILES comes first, the peptide text is derived from it. [ ]: non-standard residue; d: D form. The star is where a group is joined. ξ: configuration not given here. X37 = O=C(OCc1ccccc1)[C@@H]1CCC[C@H]1N*; Fmoc = O=C(OCC1c2ccccc2-c2ccccc21)*; ξW = NC(Cc1c[nH]c2ccccc12)C(=O)O; ξF = NC(Cc1ccccc1)C(=O)O; Boc = CC(C)(C)OC(=O)*; ξK = NCCCCC(N)C(=O)O; ξT = CC(O)C(N)C(=O)O; OBn = c1ccc(CO*)cc1; Bn = c1ccc(C*)cc1; tBu = CC(C)(C)*

Assays:
Experiment in all cases: inhibition of tumour cell growth, NCI panel, 48 h
BT-549 breast = system: BT-549 breast
HS 578T breast = system: HS 578T breast
MDA-MB-435 = system: MDA-MB-435
RPMI-8226 leukemia = system: RPMI-8226 leukemia
UACC-257 melanoma = system: UACC-257 melanoma
LOX IMVI melanoma = system: LOX IMVI melanoma

SMILES	TGI (BT-549 breast)	TGI (HS 578T breast)	TGI (MDA-MB-435)	TGI (RPMI-8226 leukemia)	TGI (UACC-257 melanoma)	TGI (LOX IMVI melanoma)
N=C(/C=C/c1ccc(-c2cn3cc(/C=C/C(=N)N4CCOCC4)ccc3n2)cc1)N1CCOCC1	> 100 µM	> 100 µM	> 100 µM	> 100 µM	> 100 µM	
COc1ccccc1NC(=S)N/N=C(/c1ccccc1)c1ccccn1	23 µM	53.9 µM	20 µM	6.14 µM	1.13 µM	15.7 µM
CC(C)(C)[Si](C)(C)OCC1OC(n2ccc(=O)[nH]c2=O)C(O[Si](C)(C)C(C)(C)C)/C1=N/O (stereo unspecified)	> 40.5 µM		9.95 µM	7.75 µM	16.7 µM	10.5 µM
C[N+](C)(C)CCCCCc1c2nc(c(CCCCC[N+](C)(C)C)c3ccc([nH]3)c(CCCCC[N+](C)(C)C)c3ccc([nH]3)c(CCCCC[N+](C)(C)C)c3nc1C=C3)C=C2	> 100 µM	> 100 µM	> 100 µM	> 100 µM	> 100 µM	> 100 µM
COc1ccc(OC)c2c1C[C@@H]1C(C#N)N3[C@H](Cc4c(OC)ccc(OC)c4[C@@H]3C)C(=O)N1[C@H]2C (stereo partly specified)	4.09 µM	> 100 µM	14 µM	7.29 µM	6.96 µM	5.95 µM
CC(C)(C)NCC(O)COc1cccc2[nH]c(C#N)cc12 (stereo unspecified)	> 100 µM	> 100 µM	> 100 µM	> 100 µM		
COC(=O)c1c(C)nc(C)c(N=O)c1-c1ccccc1C(F)(F)F	33.6 µM	44.8 µM	56.3 µM	> 100 µM	32.8 µM	30.8 µM
CCCCc1cc2c(cc1O)CCC1C2CC[C@@]2(C)C1CC[C@@H]2O (stereo partly specified)		43.8 µM	36.5 µM	39.1 µM	35.9 µM	39.3 µM
CC1(C)COC(c2cccc(C3=NC(C)(C)CO3)c2)=N1	> 100 µM		> 100 µM	> 100 µM	> 100 µM	> 100 µM
Cc1cc2nc3c(C#N)c(-c4ccccc4)/c(=C\Nc4cccc(C(F)(F)F)c4)c(=O)n3c2cc1C	> 100 µM		> 100 µM	> 100 µM	> 100 µM	> 100 µM
COC(=O)CP1(=O)OC2C(C3CCC2(C)C3(C)C)N1c1cc(C(F)(F)F)cc(C(F)(F)F)c1 (stereo unspecified)	71.8 µM		60.6 µM	42.5 µM	> 100 µM	49 µM
S=C1c2cc(Cl)ccc2NC(=NC2CCCC2)C2CSCN12 (stereo unspecified)	> 100 µM	> 100 µM	> 100 µM	> 100 µM	> 100 µM	> 100 µM
NC12c3c4cccc3Oc3cccc(c31)Oc1cccc(c12)O4	> 50 µM	> 50 µM	> 50 µM	> 50 µM	> 50 µM	
COc1cccc(-n2nnc3c(N)nc(N)nc32)c1	> 100 µM		> 100 µM	> 100 µM	> 100 µM	> 100 µM
CCOC(=O)c1cc(-c2ccc(OC)c(OC)c2)cn1C	> 10 µM	> 10 µM	> 10 µM	> 10 µM	> 10 µM	> 10 µM
COc1cc(O)c(C(=O)/C=C/c2ccc(O)cc2)cc1Oc1ccc(C(=O)/C=C/c2ccc(O)cc2)c(O)c1	9.19 µM	82.8 µM	11.8 µM	6.49 µM	21.7 µM	10.7 µM

SMILES	TGI (BT-549 breast)	TGI (HS 578T breast)	TGI (MDA-MB-435)	TGI (RPMI-8226 leukemia)	TGI (UACC-257 melanoma)	TGI (LOX IMVI melanoma)
CCCCc1ccc(N2C(=O)c3cc(C)cnc3S2(=O)=O)cc1		> 100 µM	> 100 µM	> 100 µM		> 100 µM
CC1CCN(c2nnc(Cl)cc2C(=O)c2ccccc2)CC1	> 100 µM	88.7 µM	56.9 µM		63.2 µM	> 100 µM
COc1ccc2cc(C(=O)NCCc3ccccc3)ccc2c1OC		> 100 µM	> 100 µM	> 100 µM	> 100 µM	> 100 µM
COc1ccc2c(c1)CC[C@@H]1C2CC[C@]2(C)OC(=O)CCC12 (stereo partly specified)	23.6 µM	60.6 µM	> 100 µM	> 100 µM	32.1 µM	19.4 µM
CCOC(=O)/C(O)=C(\C=N\C(=S)Nc1ccc(Cl)c(Cl)c1)C(=O)OCC		> 100 µM	> 100 µM	> 100 µM	> 100 µM	> 100 µM
CC(C)CC(NC(=O)C(Cc1ccccc1)NC(=O)C(COCc1ccccc1)NC(=O)OC(C)(C)C)C(=O)OCc1ccccc1 (stereo not drawn) (Boc-Ser(Bn)-Phe-Leu-OBn; configuration not given here)				33.2 µM	> 100 µM	40.1 µM
CC(=O)OCc1ccc(-c2nc(C#N)c(N)o2)o1	> 10 µM	> 10 µM	> 10 µM	> 10 µM	> 10 µM	> 10 µM
CC1(C)OC1CC/C(=C/CBr)CBr (stereo unspecified)	30.4 µM	47.7 µM	31.9 µM	40.7 µM	28.8 µM	22.3 µM
O=[N+]([O-])c1ccccc1S(=O)(=O)N1CCCc2cc(Cl)ccc21	> 100 µM	> 100 µM	41.7 µM	> 100 µM	> 96.1 µM	> 100 µM
CC(OC(C)(C)C)C(NC(=O)C(CCCCNC(=O)OC(C)(C)C)NC(=O)C(Cc1c[nH]c2ccccc12)NC(=O)C(Cc1ccccc1)NC(=O)OCC1c2ccccc2-c2ccccc21)C(=O)NC(Cc1ccccc1)C(=O)N[C@@H]1CCC[C@H]1C(=O)OCc1ccccc1 (stereo partly specified) (Fmoc-[ξF][ξW][ξK](Boc)[ξT](tBu)[ξF]-X37)		> 100 µM	> 100 µM	> 100 µM	> 100 µM	> 100 µM
c1ccc(COc2nc3ccc(C45CC6CC(CC(C6)C4)C5)cc3[nH]2)cc1	> 100 µM	> 75.7 µM	> 94 µM	30.9 µM	> 26.4 µM	36.5 µM
CC(=O)NC1C(OCC(=O)NC(C)C(=O)NC(CCC(=O)NCCCCCNc2ccc([N+](=O)[O-])c3[nH]c4ccccc4c(=O)c23)C(N)=O)C(O)C(CO)OC1(C)OCc1ccccc1 (stereo unspecified)	> 50 µM	> 50 µM	> 50 µM	36.6 µM	> 50 µM	> 50 µM
CCC1OC2C(CC=C(C)C)=C3OC(C)(O)C(C)(CC)C(O)C3=C3OC(=O)C=C1C32 (stereo unspecified)	71 µM		> 100 µM	> 100 µM	> 100 µM	35.9 µM
Cc1ccc(S(=O)(=O)OC2CN3CCC2CC3)cc1 (stereo unspecified)	> 100 µM	> 100 µM	> 100 µM	> 100 µM	> 100 µM	> 100 µM
Nc1nc(Cl)cc(NCC2(CO)CC(CCCCc3ccccc3)C2)n1 (stereo unspecified)	> 100 µM	> 100 µM	> 100 µM	86.2 µM	> 100 µM	> 100 µM
